Laboratory results published in ChEMBL document CHEMBL1201862, “PubChem BioAssay data set” (2004).
Active and inactive are the calls of the source. For most assays here, no stated cut-off is given here; in the data, actives have a measured EC50 and inactives only a lower limit.

Legend:
[1] = biological target: T1, Type-1 angiotensin II receptor (Homo sapiens, UniProt P30556); assay: AT1 receptor antagonists, dose response, selectivity assay for APJ receptor antagonist project, cell-based, uHTS hits (AID 463214); type: functional;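 further: antagonist potency against angiotensin II stimulated AT1 response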
T1 sequence (P30556 whole entry): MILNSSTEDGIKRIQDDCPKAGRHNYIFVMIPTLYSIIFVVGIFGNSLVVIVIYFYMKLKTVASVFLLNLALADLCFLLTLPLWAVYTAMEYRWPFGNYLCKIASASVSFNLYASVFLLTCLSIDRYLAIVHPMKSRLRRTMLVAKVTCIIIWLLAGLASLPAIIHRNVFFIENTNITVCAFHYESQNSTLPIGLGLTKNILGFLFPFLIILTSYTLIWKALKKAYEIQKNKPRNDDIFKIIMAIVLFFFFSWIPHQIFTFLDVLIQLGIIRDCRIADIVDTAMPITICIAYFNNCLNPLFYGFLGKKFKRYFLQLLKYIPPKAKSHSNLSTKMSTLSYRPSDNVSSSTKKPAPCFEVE

Beta-galactosidase = Beta-galactosidase (Escherichia coli, UniProt Q8VNN2); assay: PubChem AID 485352; type: functional
Cytochrome P450 1A2 = biological target: T2, Cytochrome P450 1A2 (Homo sapiens, UniProt P05177);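 further: PubChem cytochrome P450 panel assay, CYP1A2 panel member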
T2 sequence (P05177 whole entry): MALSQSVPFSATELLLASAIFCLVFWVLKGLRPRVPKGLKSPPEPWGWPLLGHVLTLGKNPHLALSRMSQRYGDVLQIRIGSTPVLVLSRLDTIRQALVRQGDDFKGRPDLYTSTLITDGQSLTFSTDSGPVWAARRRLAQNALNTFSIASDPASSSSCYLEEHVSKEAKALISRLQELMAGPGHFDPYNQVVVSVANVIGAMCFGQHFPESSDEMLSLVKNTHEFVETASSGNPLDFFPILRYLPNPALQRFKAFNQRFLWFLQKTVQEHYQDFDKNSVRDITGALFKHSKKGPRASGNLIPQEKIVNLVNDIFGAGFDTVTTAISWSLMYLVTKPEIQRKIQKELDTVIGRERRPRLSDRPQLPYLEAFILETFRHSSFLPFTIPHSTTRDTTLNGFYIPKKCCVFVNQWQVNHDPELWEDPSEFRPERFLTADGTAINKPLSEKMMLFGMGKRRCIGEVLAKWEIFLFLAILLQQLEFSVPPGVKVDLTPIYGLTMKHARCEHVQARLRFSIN

HEK293 = assay: cells; type: functional, cell-based; settings: Homo sapiens
[2] = biological target: T3, Nuclear receptor subfamily 0 group B member 1 (Homo sapiens, UniProt P51843); assay: Luminescence-based cell-based high throughput dose response assay for inhibitors of the orphan nuclear receptor subfamily 0, group B, member 1 (DAX1; NR0B1). [Related pubchem assays (depositor defined):AID504766, AID504790]; type: functional
T3 sequence (P51843 whole entry): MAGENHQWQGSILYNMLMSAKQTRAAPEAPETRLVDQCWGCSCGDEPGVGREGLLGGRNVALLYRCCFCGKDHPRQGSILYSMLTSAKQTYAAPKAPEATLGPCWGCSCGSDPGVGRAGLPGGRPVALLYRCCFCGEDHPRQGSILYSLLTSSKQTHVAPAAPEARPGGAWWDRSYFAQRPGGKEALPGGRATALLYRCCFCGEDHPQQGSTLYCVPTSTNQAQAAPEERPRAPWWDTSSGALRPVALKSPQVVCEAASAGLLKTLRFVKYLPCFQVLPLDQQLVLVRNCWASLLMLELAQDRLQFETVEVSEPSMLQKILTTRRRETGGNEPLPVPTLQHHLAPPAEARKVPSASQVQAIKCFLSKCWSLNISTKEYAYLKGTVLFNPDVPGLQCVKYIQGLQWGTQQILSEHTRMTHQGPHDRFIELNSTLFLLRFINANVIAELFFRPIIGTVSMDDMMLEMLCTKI

[3] = biological target: Oxysterols receptor LXR-beta (Homo sapiens, UniProt P55055); type: functional, cell-based;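 further: Cell-based luminescence dose-response assay of agonist activity at LXR, run as a confirmatory counterscreen to a daf-12 agonist screen; HEK293 cells with Gal4-LXR fusion and GAL4-driven luciferase reporter; agonist potency from rising luciferase signal of a Gal4-LXR reporter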
[4] = test system: Streptococcus sp. 'group A'; assay: growth inhibition of control SK(-) GAS strain, dose response, counter-screen for streptokinase expression inhibitor project, luminescence, kanamycin, BacTiterGlo, confirmation (AID 1900); type: functional, organism-based
[5] = cytotoxicity toward NIH3T3 fibroblasts, dose response, counter-screen, cell-based, ATP luminescence, mouse fibroblasts (AID 2010); type: functional;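 further: cells exposed to compound for about 90 hours before reading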
[6] = biological target: ATP-dependent molecular chaperone HSP82 (Candida albicans (strain WO-1) (Yeast), UniProt C4YTQ8); assay: loss of DOC-induced GRE-beta-galactosidase reporter signal, dose response, Hsp90 inhibitor project, S. cerevisiae, luminescence (AID 2400); type: functional, cell-based;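 further: beta-galactosidase luminescence from glucocorticoid response element reporter as proxy for Hsp90 function; inhibitor potency where signal loss means Hsp90 inhibition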
INS1 = assay: beta cell apoptosis inhibitors, cytokine rescue, dose response, luminescence, retest (AID 449756); type: functional, cell-based; settings: Rattus norvegicus;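 further: cell death triggered by IL-1 beta plus TNF-alpha plus IFN-gamma mixture; protective hits raise ATP signal compared with cytokine alone wells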
[7] = inhibitors of intracellular T. cruzi replication, confirmation, NIH3T3 host cells, beta-gal luminescence (AID 2044); type: functional, cell-based;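 further: intracellular parasites grown in NIH/3T3 mouse fibroblasts as host cells; luminescent beta-galactosidase reporter signal from transgenic T. cruzi replicating inside host cells; inhibitors lower the luminescence signal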
[8] = biological target: Serine/threonine-protein phosphatase (Candida dubliniensis (strain CD36 / CBS 7987 / NCPF 3949 / NRRLY-17841) (Yeast), UniProt B9W6M3); assay: calcineurin pathway inhibitors in yeast reporter, dose response, S. cerevisiae, CDRE-lacZ, luminescence, secondary (AID 2388); type: functional, cell-based;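 further: yeast reporter cells carrying a calcineurin-responsive lacZ construct stimulated with calcium chloride; luminescent beta-galactosidase reporter signal in whole cells rather than isolated phosphatase activity; potency for inhibition where a drop in reporter signal means calcineurin blockade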
Streptococcus = assay: Group A Streptococcus viability loss, dose response, counter-screen for streptokinase expression inhibitor project, luminescence, BacTiterGlo (AID 1915); type: functional, organism-based;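 further: potency for reduction of bacterial viability or growth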
[9] = NIH-3T3 fibroblast cytotoxicity, dose response, cytotoxicity control, cell-based, fluorescence, Alamar Blue, secondary assay (AID 2327); type: functional;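 further: NIH-3T3 mouse fibroblasts cultured with fluconazole at 8 µg/mL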
[10] = C. albicans growth with fluconazole, confirmation, fluorescence, retest (AID 2467); type: functional, cell-based
Streptokinase A = biological target: T4, Streptokinase A (Streptococcus pyogenes serotype M1, UniProt P10520); assay: S. pyogenes streptokinase expression inhibitors, potency, dose response, plasminogen activation absorbance, OD405 (AID 1914); type: functional, Streptococcus pyogenes M1 GAS;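 further: secreted streptokinase activity via plasminogen activation per viability signal from cell pellet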
T4 sequence (P10520 whole entry): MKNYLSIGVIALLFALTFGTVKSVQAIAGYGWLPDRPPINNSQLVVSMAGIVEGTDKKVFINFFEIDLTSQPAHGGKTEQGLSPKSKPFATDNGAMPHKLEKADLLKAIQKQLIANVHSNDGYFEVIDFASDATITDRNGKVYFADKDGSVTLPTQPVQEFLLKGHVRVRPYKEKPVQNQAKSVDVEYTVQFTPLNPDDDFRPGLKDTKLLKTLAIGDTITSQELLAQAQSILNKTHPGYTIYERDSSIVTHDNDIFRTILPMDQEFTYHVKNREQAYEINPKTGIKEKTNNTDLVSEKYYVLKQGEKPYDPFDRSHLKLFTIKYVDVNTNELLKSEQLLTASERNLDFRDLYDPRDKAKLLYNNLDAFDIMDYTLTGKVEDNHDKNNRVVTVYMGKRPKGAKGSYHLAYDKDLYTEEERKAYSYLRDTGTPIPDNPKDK

[11] = biological target: Apoptotic protease-activating factor 1 (Homo sapiens, UniProt O14727); type: functional
[12] = biological target: T5, Corticotropin-releasing factor receptor 2/Corticotropin-releasing factor-binding protein (Homo sapiens, UniProt P24387+Q13324); assay: activators of CRF receptor 2 with binding protein – uHTS hits, confirmation (AID 602473); type: functional; settings: read-out: EC50_Mean
T5 sequence (Q13324 whole entry): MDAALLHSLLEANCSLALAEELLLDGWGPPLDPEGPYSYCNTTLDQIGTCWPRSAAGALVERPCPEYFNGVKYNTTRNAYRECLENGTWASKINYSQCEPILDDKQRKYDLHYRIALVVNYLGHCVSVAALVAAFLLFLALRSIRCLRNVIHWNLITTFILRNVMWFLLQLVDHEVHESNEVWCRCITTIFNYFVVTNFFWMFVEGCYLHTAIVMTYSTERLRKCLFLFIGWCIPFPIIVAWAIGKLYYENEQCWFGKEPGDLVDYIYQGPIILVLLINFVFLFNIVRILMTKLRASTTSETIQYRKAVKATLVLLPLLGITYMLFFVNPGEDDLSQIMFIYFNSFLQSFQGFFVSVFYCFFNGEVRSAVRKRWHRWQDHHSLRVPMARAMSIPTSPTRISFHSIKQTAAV
T5 sequence (P24387 whole entry): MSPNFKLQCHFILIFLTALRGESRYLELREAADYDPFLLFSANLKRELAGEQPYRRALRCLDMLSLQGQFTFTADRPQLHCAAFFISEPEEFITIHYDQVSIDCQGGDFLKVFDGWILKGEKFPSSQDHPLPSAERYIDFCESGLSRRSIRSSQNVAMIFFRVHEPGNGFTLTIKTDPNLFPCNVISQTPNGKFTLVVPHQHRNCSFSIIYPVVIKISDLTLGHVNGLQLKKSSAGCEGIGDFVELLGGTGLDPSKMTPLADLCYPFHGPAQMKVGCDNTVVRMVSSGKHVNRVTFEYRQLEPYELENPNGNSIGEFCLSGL

CHO = assay: cytotoxicity in TLR9-MyD88 CHO cells, dose response, cytotoxicity control for TLR9-MyD88 binding inhibitor project, cell-based, luminescence (AID 588339); type: functional, hamster; settings: Cricetulus griseus;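 further: CHO cells stably coexpressing TLR9 and MyD88 fusions from primary screen; compound exposure lasted 48 hours before viability readout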
Beta Lactamase = Beta Lactamase (Pseudomonas aeruginosa, UniProt Q932Y6); assay: beta-lactamase reporter inhibitor potency, dose response, artefact control for TLR9-MyD88 binding inhibitor project, BLA reporter cells, FRET fluorescence (AID 588341); type: cell-based;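 further: cell based assay in CHO-K1 cells stably expressing beta-lactamase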
[13] = biological target: T6, RNA-binding protein pos-1 (Caenorhabditis elegans, UniProt G5EF15); assay: inhibitors of POS-1/mex-3 RNA binding, dose response, biochemical, fluorescence polarization (AID 1964);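 further: purified POS-1 fused to maltose binding protein made in E. coli; potency of compounds blocking POS-1 binding to fluorescent RNA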
T6 sequence (G5EF15 whole entry): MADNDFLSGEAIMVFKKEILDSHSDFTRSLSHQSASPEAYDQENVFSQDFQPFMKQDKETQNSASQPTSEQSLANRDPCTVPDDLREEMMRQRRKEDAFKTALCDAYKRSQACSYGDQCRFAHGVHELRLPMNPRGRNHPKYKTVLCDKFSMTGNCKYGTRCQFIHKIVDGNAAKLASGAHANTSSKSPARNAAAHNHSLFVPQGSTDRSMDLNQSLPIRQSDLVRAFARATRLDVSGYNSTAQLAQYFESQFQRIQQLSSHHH

[14] = biological target: T7, Zinc finger protein mex-5 (Caenorhabditis elegans, UniProt Q9XUB2); assay: MEX-5/TCR-2 RNA interaction inhibitors, dose response, biochemical, C. elegans, fluorescence polarization (AID 1960)
T7 sequence (Q9XUB2 whole entry): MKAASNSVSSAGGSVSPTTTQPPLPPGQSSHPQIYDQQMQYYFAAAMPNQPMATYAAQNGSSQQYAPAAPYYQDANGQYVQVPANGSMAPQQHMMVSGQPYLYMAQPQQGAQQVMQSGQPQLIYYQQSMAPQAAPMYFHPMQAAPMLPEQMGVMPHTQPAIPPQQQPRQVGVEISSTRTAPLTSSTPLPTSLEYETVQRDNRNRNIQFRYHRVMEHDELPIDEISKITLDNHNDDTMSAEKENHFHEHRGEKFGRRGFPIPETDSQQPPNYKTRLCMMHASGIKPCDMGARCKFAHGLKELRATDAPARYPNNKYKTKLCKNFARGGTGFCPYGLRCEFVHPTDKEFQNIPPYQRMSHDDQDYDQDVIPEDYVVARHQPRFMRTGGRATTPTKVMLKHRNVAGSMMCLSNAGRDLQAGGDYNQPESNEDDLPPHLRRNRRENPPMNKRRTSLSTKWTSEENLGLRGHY

Chain of Beta-galactosidase (Q8VNN2 whole entry): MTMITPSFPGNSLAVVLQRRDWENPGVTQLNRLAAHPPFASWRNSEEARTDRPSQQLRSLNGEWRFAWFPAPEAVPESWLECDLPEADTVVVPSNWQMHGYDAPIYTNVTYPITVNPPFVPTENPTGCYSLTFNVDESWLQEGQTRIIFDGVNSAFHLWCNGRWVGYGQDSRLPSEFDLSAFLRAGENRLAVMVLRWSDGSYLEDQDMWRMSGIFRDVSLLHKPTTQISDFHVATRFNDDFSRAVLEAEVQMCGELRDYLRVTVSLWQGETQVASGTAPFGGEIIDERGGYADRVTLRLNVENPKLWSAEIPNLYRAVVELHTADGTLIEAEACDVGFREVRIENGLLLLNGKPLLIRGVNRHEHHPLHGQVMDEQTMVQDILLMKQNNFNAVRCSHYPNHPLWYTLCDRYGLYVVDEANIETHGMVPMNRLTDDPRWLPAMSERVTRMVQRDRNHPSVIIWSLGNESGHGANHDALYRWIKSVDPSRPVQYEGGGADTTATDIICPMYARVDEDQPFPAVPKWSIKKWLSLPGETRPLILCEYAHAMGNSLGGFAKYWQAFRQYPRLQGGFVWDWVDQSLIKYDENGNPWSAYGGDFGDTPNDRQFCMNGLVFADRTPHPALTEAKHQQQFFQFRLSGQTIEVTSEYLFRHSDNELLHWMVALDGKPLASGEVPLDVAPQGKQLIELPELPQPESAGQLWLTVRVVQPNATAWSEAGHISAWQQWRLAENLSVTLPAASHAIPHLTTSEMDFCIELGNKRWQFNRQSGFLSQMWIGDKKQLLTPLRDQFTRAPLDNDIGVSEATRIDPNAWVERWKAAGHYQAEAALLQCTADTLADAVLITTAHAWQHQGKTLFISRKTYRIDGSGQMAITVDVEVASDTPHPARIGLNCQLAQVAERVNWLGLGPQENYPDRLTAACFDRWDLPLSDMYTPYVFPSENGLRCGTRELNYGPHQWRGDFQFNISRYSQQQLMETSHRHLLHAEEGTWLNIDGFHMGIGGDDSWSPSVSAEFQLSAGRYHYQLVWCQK
Chain of Oxysterols receptor LXR-beta (P55055 whole entry, the tested form may be a part): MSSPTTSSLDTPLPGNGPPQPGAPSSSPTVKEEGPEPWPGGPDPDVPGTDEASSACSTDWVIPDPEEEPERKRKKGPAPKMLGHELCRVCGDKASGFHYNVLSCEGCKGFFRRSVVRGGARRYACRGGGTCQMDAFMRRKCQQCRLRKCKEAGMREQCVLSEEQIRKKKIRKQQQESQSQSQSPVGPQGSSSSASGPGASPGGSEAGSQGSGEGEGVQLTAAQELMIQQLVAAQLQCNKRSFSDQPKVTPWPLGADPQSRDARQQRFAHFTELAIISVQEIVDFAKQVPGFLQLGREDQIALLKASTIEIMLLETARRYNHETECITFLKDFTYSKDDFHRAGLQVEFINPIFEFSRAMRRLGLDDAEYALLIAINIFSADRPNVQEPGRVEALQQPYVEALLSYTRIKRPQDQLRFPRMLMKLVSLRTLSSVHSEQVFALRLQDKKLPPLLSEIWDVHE
Chain of ATP-dependent molecular chaperone HSP82 (C4YTQ8 whole entry): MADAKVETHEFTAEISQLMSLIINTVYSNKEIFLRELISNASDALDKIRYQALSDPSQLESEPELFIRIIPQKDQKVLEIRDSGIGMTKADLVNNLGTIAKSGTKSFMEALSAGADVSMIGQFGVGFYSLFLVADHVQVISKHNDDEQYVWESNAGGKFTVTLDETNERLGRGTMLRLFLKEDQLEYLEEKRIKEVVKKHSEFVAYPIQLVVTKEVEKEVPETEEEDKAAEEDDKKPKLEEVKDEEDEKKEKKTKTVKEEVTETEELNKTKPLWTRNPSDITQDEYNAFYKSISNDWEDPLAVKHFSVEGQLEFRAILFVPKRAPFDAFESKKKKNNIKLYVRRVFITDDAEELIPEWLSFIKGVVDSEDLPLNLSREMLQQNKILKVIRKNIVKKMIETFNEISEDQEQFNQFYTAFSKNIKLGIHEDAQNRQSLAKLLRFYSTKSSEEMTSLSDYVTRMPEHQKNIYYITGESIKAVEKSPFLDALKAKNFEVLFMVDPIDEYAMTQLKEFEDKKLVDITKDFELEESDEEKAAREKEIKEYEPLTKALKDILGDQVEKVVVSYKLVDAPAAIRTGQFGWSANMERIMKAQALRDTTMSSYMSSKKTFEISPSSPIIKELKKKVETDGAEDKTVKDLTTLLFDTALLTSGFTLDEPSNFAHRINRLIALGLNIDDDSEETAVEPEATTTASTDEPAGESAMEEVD
Chain of Apoptotic protease-activating factor 1 (O14727 whole entry): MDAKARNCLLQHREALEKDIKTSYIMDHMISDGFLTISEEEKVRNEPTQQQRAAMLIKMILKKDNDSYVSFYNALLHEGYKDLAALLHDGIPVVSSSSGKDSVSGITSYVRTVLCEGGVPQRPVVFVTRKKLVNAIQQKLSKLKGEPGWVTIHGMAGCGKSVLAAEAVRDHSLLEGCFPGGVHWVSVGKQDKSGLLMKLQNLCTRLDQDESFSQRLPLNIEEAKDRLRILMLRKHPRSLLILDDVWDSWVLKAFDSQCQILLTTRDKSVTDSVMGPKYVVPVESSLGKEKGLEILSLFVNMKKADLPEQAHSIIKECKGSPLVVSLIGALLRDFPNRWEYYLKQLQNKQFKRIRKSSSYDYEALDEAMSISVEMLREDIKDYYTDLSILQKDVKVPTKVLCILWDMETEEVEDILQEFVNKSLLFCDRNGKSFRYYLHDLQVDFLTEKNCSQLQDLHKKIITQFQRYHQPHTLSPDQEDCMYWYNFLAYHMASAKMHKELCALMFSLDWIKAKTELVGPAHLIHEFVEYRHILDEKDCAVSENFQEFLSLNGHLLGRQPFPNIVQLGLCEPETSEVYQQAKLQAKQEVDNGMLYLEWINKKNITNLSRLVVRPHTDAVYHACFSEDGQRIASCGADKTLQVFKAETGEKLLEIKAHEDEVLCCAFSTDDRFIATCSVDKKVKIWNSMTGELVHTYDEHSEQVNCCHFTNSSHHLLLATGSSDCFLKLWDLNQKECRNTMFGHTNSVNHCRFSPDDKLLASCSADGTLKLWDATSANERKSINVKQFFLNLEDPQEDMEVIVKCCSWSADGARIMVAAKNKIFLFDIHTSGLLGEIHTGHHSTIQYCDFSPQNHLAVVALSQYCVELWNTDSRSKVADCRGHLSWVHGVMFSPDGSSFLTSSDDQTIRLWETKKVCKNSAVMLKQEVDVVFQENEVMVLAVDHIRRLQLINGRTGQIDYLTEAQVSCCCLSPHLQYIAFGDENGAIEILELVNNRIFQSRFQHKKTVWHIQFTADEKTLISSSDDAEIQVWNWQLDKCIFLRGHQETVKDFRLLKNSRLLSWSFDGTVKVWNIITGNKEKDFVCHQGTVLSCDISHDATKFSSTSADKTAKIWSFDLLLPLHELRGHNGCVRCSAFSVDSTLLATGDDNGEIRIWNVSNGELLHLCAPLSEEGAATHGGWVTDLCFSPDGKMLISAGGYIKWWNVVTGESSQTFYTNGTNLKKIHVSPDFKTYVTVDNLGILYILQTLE
Chain of Beta Lactamase (Q932Y6 whole entry, the tested form may be a part): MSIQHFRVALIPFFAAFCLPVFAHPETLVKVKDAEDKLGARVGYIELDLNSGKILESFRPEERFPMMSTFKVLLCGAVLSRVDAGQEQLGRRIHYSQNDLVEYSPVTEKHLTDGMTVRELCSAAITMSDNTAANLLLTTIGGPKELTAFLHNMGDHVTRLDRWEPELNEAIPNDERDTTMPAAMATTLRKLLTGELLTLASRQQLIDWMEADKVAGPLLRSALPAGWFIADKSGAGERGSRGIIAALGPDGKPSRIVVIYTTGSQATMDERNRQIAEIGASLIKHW
Chain of Serine/threonine-protein phosphatase (B9W6M3 whole entry): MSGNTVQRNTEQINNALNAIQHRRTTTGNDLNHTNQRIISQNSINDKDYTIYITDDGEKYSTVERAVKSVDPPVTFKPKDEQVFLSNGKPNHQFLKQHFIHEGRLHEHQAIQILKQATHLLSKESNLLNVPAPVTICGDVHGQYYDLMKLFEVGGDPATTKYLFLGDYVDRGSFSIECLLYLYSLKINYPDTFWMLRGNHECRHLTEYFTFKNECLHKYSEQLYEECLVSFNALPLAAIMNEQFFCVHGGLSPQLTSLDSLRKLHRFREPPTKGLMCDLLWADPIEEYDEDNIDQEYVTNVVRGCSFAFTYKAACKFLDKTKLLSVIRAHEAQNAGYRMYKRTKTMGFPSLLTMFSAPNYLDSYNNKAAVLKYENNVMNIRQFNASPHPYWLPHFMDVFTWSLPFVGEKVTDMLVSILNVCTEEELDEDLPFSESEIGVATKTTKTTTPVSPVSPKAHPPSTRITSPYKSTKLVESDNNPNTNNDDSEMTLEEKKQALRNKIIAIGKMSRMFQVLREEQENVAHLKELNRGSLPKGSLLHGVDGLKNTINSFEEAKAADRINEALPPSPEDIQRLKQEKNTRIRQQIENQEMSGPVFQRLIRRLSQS

**Q.** Which IC50 [1] does the source give for `Cc1ccc(C(=O)COC(=O)CNC(=O)Cc2ccccc2)cc1[N+](=O)[O-]` here?
**A.** > 40 µM (not active)

**Q.** And the EC50 (Beta-galactosidase)?
**A.** > 40 µM (inactive)

**Q.** And the AC50 (Cytochrome P450 1A2)?
**A.** 25.1 µM (inconclusive)

**Q.** With `COC(=O)c1ccc(NCC(=O)c2ccccc2)cc1` as the compound, how does the IC50 [1] read?
**A.** 13.7 µM (active)

**Q.** And the EC50 (Beta-galactosidase)?
**A.** > 40 µM (inactive)

**Q.** Which IC50 (HEK293) does the source give for `Oc1ccccc1-c1cc(-c2ccc(F)cc2)[nH]n1` here?
**A.** > 67.5 µM (inactive)

**Q.** What about the IC50 [2] of the same compound?
**A.** > 67.5 µM (inactive)

**Q.** And the EC50 [3]?
**A.** > 67.6 µM (inactive)

**Q.** And the EC50 (cells)?
**A.** > 67.6 µM (inactive)

**Q.** Which results are given for `Nc1nonc1-n1nnc(C(=O)N/N=C/c2cc(Br)ccc2O)c1CNc1ccccc1`?
**A.** EC50 [4]: 0.392 µM (active); EC50 [5]: 5.03 µM (active); EC50 [6]: 22.6 µM (active); AC50 (INS1): 2.52 µM (active); EC50 [7]: 1.84 µM (active); EC50 [8]: > 180 µM (inactive); EC50 (Streptococcus): 3.23 µM (active); EC50 [9]: 43.8 µM (inconclusive); EC50 [10]: 0.178 µM (active); EC50 (Streptokinase A): > 150 µM (not active)

**Q.** Which IC50 [11] does the source give for `O=C(O)c1cccc(NC2=C(N3CCOCC3)C(=O)c3ccccc3C2=O)c1` here?
**A.** 14.8 µM (active)

**Q.** For `COc1ccc(C(=O)c2sc3nc(C)cc(-c4cccs4)c3c2N)cc1OC`, which EC50 [12] is on record?
**A.** 8.12 µM (active)

**Q.** And the IC50 (CHO)?
**A.** 50.2 µM (inactive)

**Q.** What about the IC50 (Beta Lactamase) of the same compound?
**A.** 8.85 µM (active)

**Q.** What about the EC50 [13] of the same compound?
**A.** 21.2 µM (active)

**Q.** And the EC50 [14]?
**A.** 22.6 µM (active)

**Q.** Which IC50 (HEK293) does the source give for `Cc1nc2c(ncn2-c2ccccc2)c(=O)n1NC(=O)CN1CCCC1` here?
**A.** > 67.5 µM (inactive)

**Q.** And the IC50 [2]?
**A.** > 67.5 µM (inactive)
